# The Bradley open melting point set (2014)
# Several values for one entry are separate records, joined by “and”; a condition that tells them apart may be missing. Equal values may be shown once.
row,melting point,SMILES
1,166 °C,"CCOC(=O)CCC(C)C1CCC2C3C(O)C(Br)C4CC(OC(C)=O)CCC4(C)C3CC(OC(C)=O)C12C (stereo not drawn) [ethyl 3,12-bis(acetyloxy)-6-bromo-7-hydroxycholan-24-oate]"
2,107 °C,CCCCN1CCCCC1C(=O)Nc1c(C)cccc1C (stereo not drawn) [bupivacaine]
3,38 °C,CCS(=O)(=O)CCO [2-(ethylsulfonyl)ethanol]
4,182 °C,O=C(O)c1ccc(CO)cc1 [p-hydroxymethyl_benzoic_acid]
5,136 °C,O=CNC(c1ccccc1)c1ccccc1 [N-(Diphenylmethyl)formamide]
6,164 °C,"CC(C)CCCC(C)C1CCC2C3CCC45CCC(=O)C4C5(C)C3CCC12C (stereo not drawn) [1,5-cyclocholestan-2-one]"
7,52 °C,"COC(=O)n1nc(C)cc1C [methyl 3,5-dimethyl-1H-pyrazole-1-carboxylate]"
8,-183 °C,CC [ethane]
9,180 °C,O=C(O)c1cc(F)ccc1O [5-fluorosalicylic acid]
10,163 °C,O=C(O)c1ccc([N+](=O)[O-])cc1C(=O)O [4-nitrophthalic acid]
11,119 °C,CCCC(=O)Nc1ccc(OCC(O)CNC(C)C)c(C(C)=O)c1 (stereo not drawn) [acebutolol]
12,39 °C,BrC(c1ccccc1)c1ccccc1 [benzhydryl bromide]
13,109 °C,O=C(Nc1ccccn1)C(C(F)(F)F)C(F)(F)F
14,154 °C,O=C(O)c1cc(Br)ccc1Cl [5-bromo-2-chlorobenzoic_acid]
15,2 °C,Cc1c(C)c2c(c(C)c1O)CC[C@@](C)(CCC[C@H](C)CCC[C@H](C)CCCC(C)C)O2 [Vitamin E]
16,218 °C,CCOC(=O)C12C(c3ccccc3O[P+]1([O-])OCC)C1(C(=O)OCC)C2c2ccccc2O[P+]1([O-])OCC (stereo not drawn)
17,122 °C,O=C(O)c1ccccc1 [Benzoic acid]
18,1.5 °C,O=Cc1ccccc1O [Salicylaldehyde]
19,201 °C,"COc1cc(Cc2cnc(N)nc2N)cc(OC)c1OC [5-(3,4,5-Trimethoxybenzyl)pyrimidine-2,4-diamine]"
20,105 °C,Cc1ccccc1C(=O)O [o-toluic_acid]
21,23 °C,CCCCCc1ccc(-c2ccc(C#N)cc2)cc1 [4-cyano-4'-n-pentylbiphenyl]

row,melting point,SMILES
1,-5 °C,"CCC(O)C(C)(C)C (stereo not drawn) [2,2-dimethyl-3-pentanol]"
2,-78 °C,CCCCCO [Pentan-1-ol]
3,-98 °C,CO [Methanol]
4,118 °C,Nc1ccc2ccc3cccc4ccc1c2c34 [1-aminopyrene]
5,-125 °C,CC=O [acetaldehyde]
6,58 °C,CC(=O)Oc1c(-c2ccccc2)n(C(C)=O)c2cc([N+](=O)[O-])c(/C(Cl)=C/c3ccccc3)cc12
7,143 °C,CCc1cc(Br)ccc1NC(C)=O [4'-bromo-2'-ethylacetanilide]
8,159 °C,c1ccc2c(c1)Sc1ccccc1S2 [Thianthrene]
9,18 °C,OCC(O)CO [glycerol]
10,147 °C,C=CCSc1ncccc1C(=O)O [2-(allylthio)nicotinic acid]
11,162 °C,CC(C)NCC(O)COc1cccc2ccccc12 (stereo not drawn) [propranolol]
12,130 °C,CC(=O)[C@H]1CC[C@H]2[C@@H]3CCC4=CC(=O)CC[C@]4(C)[C@H]3CC[C@]12C [Progesterone]
13,-33 °C,CCCC(=O)CCC [Heptan-4-one]
14,264 °C,CC(N)C(=O)O (stereo not drawn) [Alanine]
15,6 °C,ICI [diiodomethane]
16,70 °C,Nc1ccc(I)cc1Cl [2-chloro-4-iodoaniline]
17,-85 °C,CC(O)CN(C)C (stereo not drawn) [1-dimethylamino-2-propanol]
18,85 °C,C[C@H](NC(=O)OCc1ccccc1)C(=O)O [N-benzyloxycarbonyl-l-alanine]
19,200 °C,NCCC(=O)O [beta-alanine]
20,96.9 °C,OCCN1CCN(CCCN2c3ccccc3Sc3ccc(Cl)cc32)CC1 [perphenazine]
21,64 °C,"Nc1c(F)cc(Br)cc1F [4-bromo-2,6-difluoroaniline]"

row,melting point,SMILES
1,-153 °C,C=CCC(C)C [4-methyl-1-pentene]
2,200 °C,Cc1cc(F)ccc1B(O)O [4-fluoro-2-methylbenzeneboronic acid]
3,153 °C,"Cc1cc(C)nc(N)n1 [2-amino-4,6-dimethylpyrimidine]"
4,237 °C,O=C(O)c1cccnc1 [Niacin]
5,72 °C,"COc1ccc(C=O)c(OC)c1 [2,4-dimethoxybenzaldehyde]"
6,110 °C,O=C(O)C1CCN(C(=O)CCl)CC1 [N-chloroacetylisonipecotic acid]
7,202 °C,Oc1ccc(Cl)cc1-c1ccno1 [4-chloro-2-(5-isoxazolyl)phenol]
8,250 °C,Cc1ccc(B(O)O)cc1 [4-methylbenzeneboronic acid]
9,137 °C,CCS(=O)(=O)c1ccc(B(O)O)cc1 [4-(ethylsulfonyl)benzeneboronic acid]
10,70 °C,O=C1CCCCCN1 [epsilon-caprolactam]
11,164 °C,COc1ccc2c(C(=S)N(C)CC(=O)O)cccc2c1C(F)(F)F [tolrestat]
12,31 °C,COc1ccccc1-c1ccccc1 [2-methoxybiphenyl]
13,286 °C,"O=[N+]([O-])c1ccc2c(c1)-c1cccc([N+](=O)[O-])c1C2 [1,6-dinitro-9H-fluorene]"
14,132 °C,CCOC(=O)c1ccccc1B(O)O [2-(ethoxycarbonyl)benzeneboronic acid]
15,109 °C,"CCOC(=O)c1cccc(C(=O)O)c1 [isophthalic acid, monoethyl ester]"
16,129 °C,O=C(O)CCCCCCCCCCC(=O)O [dodecanedioic acid]
17,176 °C,O=[N+]([O-])c1ccc(I)cc1 [1-Iodo-4-nitrobenzene]
18,220 °C,COc1cc(OC)c2c(c1Cl)O[C@]1(C2=O)C(OC)CC(=O)C[C@H]1C (stereo partly drawn) [Griseofulvin]
19,-59 °C,CC(C)OB(OC(C)C)OC(C)C [triisopropyl borate]
20,89 °C,CS(=O)(=O)n1ccnc1 [1-(methylsulfonyl)imidazole]
21,11.8 °C,Cc1cccc(O)c1 [M-Cresol]

row,melting point,SMILES
1,79 °C,COC(=O)c1cccc([N+](=O)[O-])c1 [methyl 3-nitrobenzoate]
2,92 °C,OB(O)c1cc2ccccc2nc1F [2-fluoroquinoline-3-boronic acid]
3,-58 °C,C[Si](C)(C)Cl [chlorotrimethylsilane]
4,180 °C,CCCCC1=NC2(CCCC2)C(=O)N1Cc1ccc(-c2ccccc2-c2nnn[nH]2)cc1 [irbesartan]
5,-78 °C,C[Si](Cl)(Cl)Cl [methyltrichlorosilane]
6,82 °C,"OC(COc1ccccc1)COc1ccccc1 [1,3-diphenoxy-2-propanol]"
7,138 °C,CC(=O)Oc1ccccc1C(=O)O [o-acetylsalicylic acid]
8,185 °C,Oc1ccccc1-c1ccno1 [2-(5-isoxazolyl)phenol]
9,185 °C,CS(=O)c1ccc(cc1)/C=C3c2ccc(F)cc2C(CC(=O)O)=C3C (stereo not drawn) [sulindac]
10,61 °C,"COC1=C(OC)/C(=C/C=O)OC1=O [(2Z)-(3,4-dimethoxy-5-oxofuran-2(5H)-ylidene)ethanal]"
11,183 °C,C#C[C@]1(O)CC[C@H]2[C@@H]3CCc4cc(O)ccc4[C@H]3CC[C@@]21C [Ethinyl Estradiol]
12,154 °C,Cc1ccccc1OCC(=O)O [2-methylphenoxyacetic acid]
13,-9 °C,C=CCc1ccc(O)c(OC)c1 [4-Allyl-2-methoxyphenol]
14,-112 °C,CC(C)CCBr [1-bromo-3-methylbutane]
15,163 °C,OC(c1ccccc1)(c1ccccc1)c1ccccc1 [triphenylmethanol]
16,81 °C,C/C(=C\c1ccccc1)c1ccccc1 [(e)-alpha-methylstilbene]
17,122 °C,Nc1ccccc1C(O)(c1ccccc1)c1ccccc1 [(2-aminophenyl)(diphenyl)methanol]
18,232 °C,O=C(O)c1cc([N+](=O)[O-])ccc1O [5-nitrosalicylic acid]

row,SMILES,melting point
1,COc1cc(C(=O)O)cc(OC)c1OC [Eudesmic acid],172 °C
2,CC(N)=S [Ethanethioamide],115 °C
3,COc1ccc(C2=CCC3(C)C(CCC4C3CCC3(C)C(OC(C)=O)CCC43)C2)cc1 (stereo not drawn) [3-(4-methoxyphenyl)androst-2-en-17-yl acetate],179 °C
4,C1CCC(NC2CCCCC2)CC1 [N-Cyclohexylcyclohexanamine],-1 °C
5,CC(N)CCc1ccccc1 (stereo not drawn) [3-amino-1-phenylbutane],-50 °C
6,"Nc1c(Cl)cccc1Cl [2,6-dichloroaniline]",39 °C
7,CCCCI [1-iodobutane],-103 °C
8,O=Cc1ccco1 [furfuraldehyde],-36.5 °C
9,CCCCc1ccccc1 [butylbenzene],-88 °C
10,Cc1ccccc1 [toluene],-93 °C
11,Clc1ccc(-c2ccc(Cl)cc2Cl)cc1 [PCB-28],58 °C
12,Oc1ccc(-c2ccccc2)cc1 [Biphenyl-4-ol],167 °C
13,Brc1c(Br)c(Br)c(Br)c(Br)c1Br [hexabromobenzene],306 °C
14,"Brc1ccc(Br)c(Br)c1 [1,2,4-tribromobenzene]",43 °C (2×) and 44 °C
15,CC(=O)c1ccc(-c2ccccc2)cc1 [p-acetylbiphenyl],122 °C
16,CC(C)C#N [2-Methylpropanenitrile],-72 °C
17,C[C@]12CC[C@H]3[C@@H](CCC4=CC(=O)CC[C@@]43C)[C@@H]1CC[C@@H]2O [testosterone],154 °C
18,C#CCO [propargyl_alcohol],-17 °C
19,"Oc1cc(Cl)cc(Cl)c1 [3,5-dichlorophenol]",68 °C
20,COc1ccc(NC(=O)N(C)C)cc1Cl [metoxuron],127 °C
21,O=C1OC(=O)c2c(Cl)c(Cl)c(Cl)c(Cl)c21 [tetrachlorophthalic anhydride],256 °C
22,"CN(C)c1ccccc1 [N,N-dimethylaniline]",2 °C
